Experimental data from ChEMBL document CHEMBL1140902 (J Med Chem, 2009).

Columns and labels:
Progesterone receptor [1] = target: T1, Progesterone receptor (Homo sapiens, UniProt P06401); assay: Antagonist activity at progesterone receptor in human T47D cells assessed as inhibition of progesterone-induced alkaline phosphatase activity after 48 hrs; assay type: functional, cell-based
T1 sequence (P06401 whole entry): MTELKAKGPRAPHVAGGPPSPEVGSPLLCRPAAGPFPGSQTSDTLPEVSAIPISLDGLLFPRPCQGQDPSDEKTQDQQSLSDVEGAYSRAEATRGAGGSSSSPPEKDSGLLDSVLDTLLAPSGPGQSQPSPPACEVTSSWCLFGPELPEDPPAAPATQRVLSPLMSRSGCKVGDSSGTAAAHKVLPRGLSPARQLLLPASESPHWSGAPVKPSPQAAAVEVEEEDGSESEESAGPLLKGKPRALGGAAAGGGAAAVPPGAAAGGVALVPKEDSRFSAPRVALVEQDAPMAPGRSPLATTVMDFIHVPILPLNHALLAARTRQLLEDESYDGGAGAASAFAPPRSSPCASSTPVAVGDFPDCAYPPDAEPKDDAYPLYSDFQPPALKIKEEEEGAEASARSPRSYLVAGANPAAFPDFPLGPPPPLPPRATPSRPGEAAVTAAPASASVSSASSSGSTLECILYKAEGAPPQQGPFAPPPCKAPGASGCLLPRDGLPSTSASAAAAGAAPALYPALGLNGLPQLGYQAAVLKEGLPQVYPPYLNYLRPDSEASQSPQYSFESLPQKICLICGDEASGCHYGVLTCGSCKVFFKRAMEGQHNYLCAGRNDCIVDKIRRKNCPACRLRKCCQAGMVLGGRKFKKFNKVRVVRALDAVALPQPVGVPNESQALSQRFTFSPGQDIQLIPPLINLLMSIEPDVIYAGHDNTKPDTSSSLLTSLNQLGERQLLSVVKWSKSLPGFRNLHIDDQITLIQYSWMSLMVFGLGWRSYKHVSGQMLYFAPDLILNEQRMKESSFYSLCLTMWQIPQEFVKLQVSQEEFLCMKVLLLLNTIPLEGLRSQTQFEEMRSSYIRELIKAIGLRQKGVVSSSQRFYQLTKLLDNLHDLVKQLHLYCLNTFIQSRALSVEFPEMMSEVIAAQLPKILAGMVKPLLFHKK

Progesterone receptor [2] = target: T1, Progesterone receptor; assay: Antagonist activity at progesterone receptor in human T47D-C124 cells transfected with luciferase gene linked to MMTV promoter assessed as inhibition of progesterone-induced luciferase transactivation activity after 24 hrs; assay type: functional, cell-based

IC50 (Progesterone receptor [1])	IC50 (Progesterone receptor [2])	SMILES
0.095 nM	–	CC#C[C@]1(O)CC[C@H]2[C@@H]3CCC4=CC(=O)CCC4=C3[C@@H](c3ccc(OC)cc3)C[C@@]21C
0.46 nM	–	CC#C[C@]1(O)CC[C@H]2[C@@H]3CCC4=CC(=O)CCC4=C3[C@@H](c3ccc(N(C)CCCCCCCCCCC(=O)O)cc3)C[C@@]21C
0.55 nM	–	CC#C[C@]1(O)CC[C@H]2[C@@H]3CCC4=CC(=O)CCC4=C3[C@@H](c3ccc(N(C)CCCCCC(N)=O)cc3)C[C@@]21C
0.63 nM	–	CC#C[C@]1(O)CC[C@H]2[C@@H]3CCC4=CC(=O)CCC4=C3[C@@H](c3ccc(N(C)CCCCCCCCCCC(=O)OC)cc3)C[C@@]21C
0.25 nM	–	CC#C[C@]1(O)CC[C@H]2[C@@H]3CCC4=CC(=O)CCC4=C3[C@@H](c3ccc(N(C)CCCCCCOC(=O)CCC(=O)O)cc3)C[C@@]21C
0.44 nM	–	CC#C[C@]1(O)CC[C@H]2[C@@H]3CCC4=CC(=O)CCC4=C3[C@@H](c3ccc(N(C)CCCCCC(=O)O)cc3)C[C@@]21C
0.15 nM	–	CC#C[C@]1(O)CC[C@H]2[C@@H]3CCC4=CC(=O)CCC4=C3[C@@H](c3ccc(N(C)CCCCCC=O)cc3)C[C@@]21C
1 nM	–	CC#C[C@]1(O)CC[C@H]2[C@@H]3CCC4=CC(=O)CCC4=C3[C@@H](c3ccc(OCCCCCCCCCBr)cc3)C[C@@]21C
0.06 nM	0.071 nM	CC#C[C@]1(O)CC[C@H]2[C@@H]3CCC4=CC(=O)CCC4=C3[C@@H](c3ccc(N(C)CCCCCCO)cc3)C[C@@]21C
0.17 nM	–	CC#C[C@]1(O)CC[C@H]2[C@@H]3CCC4=CC(=O)CCC4=C3[C@@H](c3ccc(N(C)CCCCCCOC(=O)CCC(=O)OC)cc3)C[C@@]21C
1.4 nM	0.38 nM	CC#C[C@]1(O)CC[C@H]2[C@@H]3CCC4=CC(=O)CCC4=C3[C@@H](c3ccc(N(C)CCCCCCCCC)cc3)C[C@@]21C
0.12 nM	0.105 nM	CC#C[C@]1(O)CC[C@H]2[C@@H]3CCC4=CC(=O)CCC4=C3[C@@H](c3ccc(N(C)CCCO)cc3)C[C@@]21C
1.3 nM	–	CC#C[C@]1(O)CC[C@H]2[C@@H]3CCC4=CC(=O)CCC4=C3[C@@H](c3ccc(O)cc3)C[C@@]21C
0.66 nM	0.18 nM	CC#C[C@]1(O)CC[C@H]2[C@@H]3CCC4=CC(=O)CCC4=C3[C@@H](c3ccc(N(C)CCCCCC)cc3)C[C@@]21C
0.47 nM	–	CC#C[C@]1(O)CC[C@H]2[C@@H]3CCC4=CC(=O)CCC4=C3[C@@H](c3ccc(N(C)CCCCCCCC(=O)OC)cc3)C[C@@]21C
0.4 nM	–	CC#C[C@]1(O)CC[C@H]2[C@@H]3CCC4=CC(=O)CCC4=C3[C@@H](c3ccc(N(C)CCCCCC(=O)OC)cc3)C[C@@]21C
0.9 nM	–	CC#C[C@]1(O)CC[C@H]2[C@@H]3CCC4=CC(=O)CCC4=C3[C@@H](c3ccc(N(C)CCCCCC(=O)NCCCC)cc3)C[C@@]21C
0.27 nM	–	CC#C[C@]1(O)CC[C@H]2[C@@H]3CCC4=CC(=O)CCC4=C3[C@@H](c3ccc(N(C)CCCCCCCC(=O)O)cc3)C[C@@]21C

The next lines start with the compound.

SMILES	IC50 (Progesterone receptor [1])	IC50 (Progesterone receptor [2])
CC#C[C@]1(O)CC[C@H]2[C@@H]3CCC4=CC(=O)CCC4=C3[C@@H](c3ccc(N(C)CCCOC(=O)CCC(=O)O)cc3)C[C@@]21C	2.1 nM	–
CC#C[C@]1(O)CC[C@H]2[C@@H]3CCC4=CC(=O)CCC4=C3[C@@H](c3ccc(N(C)C(=O)CCCC(=O)OC)cc3)C[C@@]21C	1.55 nM	–
CC#C[C@]1(O)CC[C@H]2[C@@H]3CCC4=CC(=O)CCC4=C3[C@@H](c3ccc(N(C)C(=O)Nc4ccc(Cl)cc4)cc3)C[C@@]21C	0.27 nM	–
CC#C[C@]1(O)CC[C@H]2[C@@H]3CCC4=CC(=O)CCC4=C3[C@@H](c3ccc(N(C)C(=O)NCCCCCC(=O)OC)cc3)C[C@@]21C	2.2 nM	–
CC#C[C@]1(O)CC[C@H]2[C@@H]3CCC4=CC(=O)CCC4=C3[C@@H](c3ccc(N(C)C(=O)NCCCC)cc3)C[C@@]21C	0.79 nM	–
CC#C[C@]1(O)CC[C@H]2[C@@H]3CCC4=CC(=O)CCC4=C3[C@@H](c3ccc(N(C)CCC(=O)O)cc3)C[C@@]21C	34 nM	–
CC#C[C@]1(O)CC[C@H]2[C@@H]3CCC4=CC(=O)CCC4=C3[C@@H](c3ccc(N(C)C(=O)NCCCCCC(=O)N[C@@H](CC(C)C)C(=O)OC(C)(C)C)cc3)C[C@@]21C	1.7 nM	–
CC#C[C@]1(O)CC[C@H]2[C@@H]3CCC4=CC(=O)CCC4=C3[C@@H](c3ccc(N(C)C(=S)NCCCC)cc3)C[C@@]21C	0.73 nM	–
CC#C[C@]1(O)CC[C@H]2[C@@H]3CCC4=CC(=O)CCC4=C3[C@@H](c3ccc(N(C)C(=O)CCCCC(=O)OC)cc3)C[C@@]21C	1.8 nM	–
CC#C[C@]1(O)CC[C@H]2[C@@H]3CCC4=CC(=O)CCC4=C3[C@@H](c3ccc(N(C)CCC(=O)OC)cc3)C[C@@]21C	0.16 nM	–
CC#C[C@]1(O)CC[C@H]2[C@@H]3CCC4=CC(=O)CCC4=C3[C@@H](c3ccc(N(C)C(=O)CCCCC)cc3)C[C@@]21C	0.69 nM	–
CC#C[C@]1(O)CC[C@H]2[C@@H]3CCC4=CC(=O)CCC4=C3[C@@H](c3ccc(N(C)C(=O)NCCCCCC(=O)N[C@@H](CC(C)C)C(=O)O)cc3)C[C@@]21C	72 nM	–
CC#C[C@]1(O)CC[C@H]2[C@@H]3CCC4=CC(=O)CCC4=C3[C@@H](c3ccc(N(C)CCC)cc3)C[C@@]21C	0.27 nM	0.025 nM
CC#C[C@]1(O)CC[C@H]2[C@@H]3CCC4=CC(=O)CCC4=C3[C@@H](c3ccc(N(C)C(=O)CCCC(=O)O)cc3)C[C@@]21C	100 nM	–
CC#C[C@]1(O)CC[C@H]2[C@@H]3CCC4=CC(=O)CCC4=C3[C@@H](c3ccc(N(C)C(=O)NCCCCCC(=O)O)cc3)C[C@@]21C	72 nM	–
CC#C[C@]1(O)CC[C@H]2[C@@H]3CCC4=CC(=O)CCC4=C3[C@@H](c3ccc(N(C)CCCOCc4ccc(C(N)=O)c(O)c4)cc3)C[C@@]21C	0.46 nM	–
CC#C[C@]1(O)CC[C@H]2[C@@H]3CCC4=CC(=O)CCC4=C3[C@@H](c3ccc(N(C)C(=O)CCCCC(=O)O)cc3)C[C@@]21C	78 nM	–
CC#C[C@]1(O)CC[C@H]2[C@@H]3CCC4=CC(=O)CCC4=C3[C@@H](c3ccc(N(C)CCCOC(=O)CCC(=O)OC)cc3)C[C@@]21C	1.2 nM	–
CC#C[C@]1(O)CC[C@H]2[C@@H]3CCC4=CC(=O)CCC4=C3[C@@H](c3ccc(N(C)CCCCCC4OCCO4)cc3)C[C@@]21C	0.17 nM	0.073 nM
CC#C[C@]1(O)CC[C@H]2[C@@H]3CCC4=CC(=O)CCC4=C3[C@@H](c3ccc(N(C)C(=S)Nc4ccc(Cl)cc4)cc3)C[C@@]21C	0.16 nM	–
CC#C[C@]1(O)CC[C@H]2[C@@H]3CCC4=CC(=O)CCC4=C3[C@@H](c3ccc(N(C)CCC(=O)Nc4ccc(C(N)=O)c(O)c4)cc3)C[C@@]21C	0.44 nM	–
CC#C[C@]1(O)CC[C@H]2[C@@H]3CCC4=CC(=O)CCC4=C3[C@@H](c3ccc(NC)cc3)C[C@@]21C [DESMETHYLMIFEPRISTONE]	0.17 nM	0.073 nM
